Patent publication US12509451B2, “Heteroaryl amide inhibitors of CD38” (NAPA THERAPEUTICS LTD., priority 2020, dated 2025)
pIC50: −log10 of the molar value.

What was measured:
[1] = tested on: human liver microtissues (hepatocytes, Kupffer cells, endothelial and stellate cells) in NASH induction media; assay: Human 3D NASH model (InSphero Human 3D InSight), release of inflammatory markers; type: cell-based; settings: supernatant, day 5
Protocol: The efficacy of Compound 35 was also determined in a NASH model (see InSphero Human 3D InSight™ Brunswick, ME) to investigate the effect of the molecule on the pathophysiological phenotype of NASH such as release of inflammatory markers. The microtissue model used is a co-culture of 4 different cell types of human liver cells (hepatocytes, Kupffer cells, endothelial and stellate cells) cultured for 10 days in a NASH induction media containing FFA, LPS and high levels of sugars. In the LEAN group the microtissues were cultured for 10 days in physiological-like medium. The reference compound, Selonsertib, a selective ASK1 inhibitor, was used as a down regulator of inflammatory markers. Cytokine and chemokine release in the supernatant were measured at day 5 using Magnetic Luminex® Assay (R&D Systems).

CD38 = biological target: T1, CD38 (Mus musculus, UniProt P56528); assay: LPS-induced inflammation in mice, cytokines quantification in plasma; type: in vivo
T1 construct: aged mice (male C57BL6/J, 22 months old) were fasted for 4 hr; from tissue; host or cells: C57BL6/J mice (aged, DIO obese or LPS-challenged); liver, spleen, plasma
T1 sequence (P56528 1-304): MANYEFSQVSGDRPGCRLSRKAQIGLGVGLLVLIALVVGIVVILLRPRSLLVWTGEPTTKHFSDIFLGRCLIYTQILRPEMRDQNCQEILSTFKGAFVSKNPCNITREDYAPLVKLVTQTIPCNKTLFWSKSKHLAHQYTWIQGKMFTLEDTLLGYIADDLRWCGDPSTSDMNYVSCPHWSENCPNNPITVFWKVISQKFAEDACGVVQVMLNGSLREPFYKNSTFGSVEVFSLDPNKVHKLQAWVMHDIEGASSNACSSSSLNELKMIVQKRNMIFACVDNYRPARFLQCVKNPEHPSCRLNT
Protocol: The in vivo efficacy of Compound 39 against the human CD38 enzyme after LPS challenge was assessed. The effects of Compound 39 (10 mg/kg and 30 mg/kg) on inflammato cytokines, inflammation markers and NAD+ levels at 4 h and 8 h points after LPS-induced inflammation in 12 weeks old male C57BL/6J mice were evaluated.
Animals were euthanized by terminal cardiac blood puncture immediately after terminal CO2, 4 h and 8 h after LPS administration. At necropsy, the tissues (Liver, Plasma, Spleen, Kidney, Lungs, Heart, Visceral Adipose Tissue, Muscle-Gastrocnemius) were collected and quick frozen in liquid nitrogen. The blood was collected in a BD Microtainer® K2EDTA Additive Tube, centrifuge at 1000 g for 10 min at 4° C. and plasma was store at −80° C.).

[2] = biological target: T2, recombinant rat CD38 Protein (Rattus norvegicus, UniProt Q64244); assay: Fluorescence-based NAD+ hydrolase activity assay with rat recombinant CD38 protein (Assay 6); type: biochemical; settings: read-out: Assay 6 Arithmetic mean IC50
T2 construct: purchased Sino Biological
T2 sequence (Q64244 1-303): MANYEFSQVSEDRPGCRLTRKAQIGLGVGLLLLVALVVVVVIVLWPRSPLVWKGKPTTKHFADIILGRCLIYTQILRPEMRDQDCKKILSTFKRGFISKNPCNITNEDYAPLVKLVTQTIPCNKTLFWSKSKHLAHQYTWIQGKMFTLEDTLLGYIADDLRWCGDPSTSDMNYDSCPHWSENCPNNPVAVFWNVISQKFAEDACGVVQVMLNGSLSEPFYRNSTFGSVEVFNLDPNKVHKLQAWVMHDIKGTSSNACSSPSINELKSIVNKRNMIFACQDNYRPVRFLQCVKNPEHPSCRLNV
Protocol: This protocol was modified from the following references: Muller et al. (1983); Schultz et al. (2018); Matalonga et al. (2017); and de Oliveira et al. (2018), supra.
NAD+ hydrolase activity of the rat recombinant CD38 protein treated with test compounds was measured using a fluorescence-based assay. Briefly, recombinant rat CD38 Protein (Sino Biological) was resuspended in 44 μl/well of Sucrose-Tris Buffer (Sucrose 0.25 M, Tris pH 7.4 40 mM) and plated in a 96 well black plate (CORNING) at a density of 2.5 ng/well.
Each test compound was received in a powder state and dissolved in DMSO as a 25 mM stock solution. Each test compound was serially diluted in order to generate a dose-response curve. […]
The reaction was started adding nicotinamide 1,N^6-etheno-adenine dinucleotide (Sigma Aldrich) to reach a final concentration of 80 µM. The samples were excited at 321-15 nm and the emission of fluorescence was measured at 410-20 nm at 37° C. every minute for 1 hr in a Clariostar Microplate® reader (BMG LABTECH). NAD+ hydrolase activity was calculated as the slope of the linear portion of the fluorescence-time curve using the MARS data analysis software (BMG LABTECH). The data were uploaded in the Collaborative Drug Design (CDD) Software and for each compound the IC50 was calculated by the software. […] For each plate, the z-factor was also calculated as a plate quality using the CDD software.

[3] = 4 hour post LPS challenge, 10 mg/kg
[4] = 4 hour post LPS challenge, 30 mg/kg
[5] = 8 h post LPS challenge, 10 mg/kg and 30 mg/kg

decrease of plasma IL-6 (CD38; [3])	decrease of plasma TNFα (CD38; [3])	plasma IP-10 (CD38; 4 hour post LPS challenge, 10 mg/kg and 30 mg/kg)	decrease of plasma IL-6 (CD38; [4])	decrease of plasma TNFα (CD38; [4])	plasma IL-6 (CD38; [5])	plasma IP-10 (CD38; [5])	plasma TNFα (CD38; [5])	pIC50 [2]	SMILES	release of NASH-induced inflammatory marker IL-8 [1]	release of NASH-induced inflammatory marker IP-10/CXCL-10 [1]	release of NASH-induced inflammatory marker MIP-1α/CCL3 [1]	release of NASH-induced inflammatory marker TNFα [1]
–	–	–	–	–	–	–	–	–	COc1cc(C(=O)Nc2ccnc(C(F)(F)F)c2)nc(-n2ccnc2)c1 [Compound 35, 6-(1H-imidazol-1-yl)-4-methoxy-N-(2-(trifluoromethyl)pyridin-4-yl)picolinamide]	effectiveness in downregulating	effectiveness in downregulating	effectiveness in downregulating	effectiveness in downregulating
43%	22%	statistically significant decrease	75%	58%	statistically significant decrease	statistically significant decrease	statistically significant decrease	7.30 to 9.00	COCCOc1cc(C(=O)Nc2ccnc(C(F)(F)F)c2)nc(-n2ccnc2)n1 [Compound 39, 2-(1H-imidazol-1-yl)-6-(2-methoxyethoxy)-N-(2-(trifluoromethyl)pyridin-4-yl)pyrimidine-4-carboxamide]	–	–	–	–
